How the values were obtained:
PPARδ = biological target: T1, PPARδ (Homo sapiens, UniProt Q03181); experiment: PPAR reporter gene model in L-02 cells, PPARδ; type: cell-based; details: luciferase reporter, 24 hours drug, read-out: Half-maximal activation concentration of reporter gene AC50, PPARδ
T1 construct: expressed in transfected cells; host or cells: human hepatocyte cell line L-02
T1 sequence (Q03181 1-441): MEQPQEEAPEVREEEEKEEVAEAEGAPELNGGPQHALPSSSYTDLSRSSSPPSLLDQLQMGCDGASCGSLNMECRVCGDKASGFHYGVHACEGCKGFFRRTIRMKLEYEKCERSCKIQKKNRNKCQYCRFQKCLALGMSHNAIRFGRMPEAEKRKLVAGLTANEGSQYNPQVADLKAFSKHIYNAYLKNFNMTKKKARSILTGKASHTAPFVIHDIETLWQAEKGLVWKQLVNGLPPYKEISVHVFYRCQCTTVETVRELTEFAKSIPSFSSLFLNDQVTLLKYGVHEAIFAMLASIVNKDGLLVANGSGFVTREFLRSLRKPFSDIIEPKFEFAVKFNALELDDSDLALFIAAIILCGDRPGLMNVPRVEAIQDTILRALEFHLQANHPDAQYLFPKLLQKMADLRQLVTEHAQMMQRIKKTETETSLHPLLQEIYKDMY
T1 sequence (P19793 1-462 partner): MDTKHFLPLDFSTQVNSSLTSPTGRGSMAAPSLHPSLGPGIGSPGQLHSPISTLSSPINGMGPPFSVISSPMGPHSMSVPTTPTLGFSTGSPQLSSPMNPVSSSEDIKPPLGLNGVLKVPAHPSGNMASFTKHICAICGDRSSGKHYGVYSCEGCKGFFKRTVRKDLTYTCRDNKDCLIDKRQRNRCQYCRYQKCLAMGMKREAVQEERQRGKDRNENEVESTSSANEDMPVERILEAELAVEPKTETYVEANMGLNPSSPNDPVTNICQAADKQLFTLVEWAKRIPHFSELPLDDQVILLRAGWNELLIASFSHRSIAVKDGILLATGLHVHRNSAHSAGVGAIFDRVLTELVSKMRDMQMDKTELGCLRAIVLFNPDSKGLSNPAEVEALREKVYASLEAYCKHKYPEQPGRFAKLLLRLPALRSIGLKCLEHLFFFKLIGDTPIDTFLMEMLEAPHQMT
Experimental: (§1) The PPAR reporter gene model comprises three subtypes of expression plasmids, RXR expression plasmid, plasmid with luciferase reporter gene, and GFP expression plasmid as an external reference. The human hepatocyte cell line L-02 cells were seeded into 96-well plates at the density of 15,000 cells/well with about 50% plating rate, followed by culturing for 24 hours at 37° C. […] The fluorescence intensity (at wavelength 485-527 nm) of green fluorescent protein (GFP) in each well was firstly detected as an internal standard by a fluorescence detector, and then 30 μL of luciferase substrates (Promega, E151A) were added to each well. After slightly shaking to mix well, the […] were detected. The relative reporter gene activation intensity was obtained by the ratio of the fluorescence detection signal of the drugs to be tested to that of the solvent control, with both the signals normalized to the internal standard GFP signal. The half-maximal activation (AC50) of the drugs to be tested was calculated with the activity at various concentrations (shown in Table 1).

PPARα = biological target: T2, PPARα (Homo sapiens, UniProt Q07869); experiment: PPAR reporter gene model in L-02 cells, PPARα; type: cell-based; details: luciferase reporter, 24 hours drug, read-out: Half-maximal activation concentration of reporter gene AC50, PPARα
T2 construct: expressed in transfected cells; host or cells: human hepatocyte cell line L-02
T2 sequence (Q07869 1-468): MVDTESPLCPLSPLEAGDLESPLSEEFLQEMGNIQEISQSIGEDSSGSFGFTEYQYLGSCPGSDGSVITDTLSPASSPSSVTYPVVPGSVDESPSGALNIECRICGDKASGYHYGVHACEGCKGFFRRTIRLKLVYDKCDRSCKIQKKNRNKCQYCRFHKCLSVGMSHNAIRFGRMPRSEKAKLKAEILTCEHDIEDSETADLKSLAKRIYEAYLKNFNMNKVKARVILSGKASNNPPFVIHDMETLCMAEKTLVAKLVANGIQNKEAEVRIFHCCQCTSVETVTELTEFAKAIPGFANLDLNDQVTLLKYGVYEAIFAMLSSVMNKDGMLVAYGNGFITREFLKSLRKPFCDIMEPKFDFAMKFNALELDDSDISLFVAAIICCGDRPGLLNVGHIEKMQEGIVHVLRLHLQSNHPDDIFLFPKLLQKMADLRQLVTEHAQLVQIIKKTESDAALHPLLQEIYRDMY
Experimental: as §1

[1] = test system: α-smooth muscle actin (α-SMA); experiment: TGF-β1-activated hepatic stellate cells, α-SMA gene expression (qPCR); type: cell-based, human; details: TGF-β1 stimulation, 24 hours; FIG. 4
Experimental: Human primary hepatic stellate cells were seeded into 6-well plates with complete growth media (Stellate Cell Medium) for 24 hours, and then the culture media were replaced by fresh media (free of serum and growth factors) containing TGF-β1 and the compound to be tested (sodium chiglitazar) or the reference compound PPARγ/α dual agonist pioglitazone or PPARα/δ dual agonist GFT505 (both purchased from Selleck), and the cells were cultured for 24 hours. The total RNAs of the samples were extracted, and reverse transcription reaction was performed. Thereafter, a conventional PCR amplification kit (FastStart Universal SYBR@ Green Master (ROX), Roche) was used for further detection, where the PCR primers were designed with reference to the NCBI standard mRNA sequence of the target genes (Table 2). PCR reaction and detection were carried out on the ABI StepOnePlus real-time quantitative PCR instrument. By calculating the relative amount of transcripts was calculate by “Delta-Delta CT method” (Livak et al. Methods 2001), and using ACTB as the housekeeping gene for normalization and the average data of untreated human hepatic stellate cells as a reference control, the relative change folds of gene expression were obtained (FIG. 4).

O=C(c1ccc(F)cc1)c1ccccc1N[C@@H](Cc1ccc(OCCn2c3ccccc3c3ccccc32)cc1)C(=O)[O-].[Na+] [sodium chiglitazar]
AC50 (PPARδ): 0.708 µM | AC50 (PPARα): 1.1 µM | Effect on expression of α-smooth muscle actin [1]: significantly inhibited

— patent US20210386705A1, “APPLICATION OF CHIGLITAZAR AND RELATED COMPOUNDS THEREOF” (SHENZHEN CHIPSCREEN BIOSCIENCES CO., LTD., priority 2018, published 2021)
